Assay results from ChEMBL document CHEMBL1156313, “Structure-activity relationship of novel DAPK inhibitors identified by structure-based virtual screening” (Bioorg Med Chem, 2010).

What was measured:
[1] = target: T1, Death-associated protein kinase 3 (Homo sapiens, UniProt O43293); test: Inhibition of human recombinant DAPK3 at 10 uM
Target sequence in this assay (O43293 whole entry, looked up): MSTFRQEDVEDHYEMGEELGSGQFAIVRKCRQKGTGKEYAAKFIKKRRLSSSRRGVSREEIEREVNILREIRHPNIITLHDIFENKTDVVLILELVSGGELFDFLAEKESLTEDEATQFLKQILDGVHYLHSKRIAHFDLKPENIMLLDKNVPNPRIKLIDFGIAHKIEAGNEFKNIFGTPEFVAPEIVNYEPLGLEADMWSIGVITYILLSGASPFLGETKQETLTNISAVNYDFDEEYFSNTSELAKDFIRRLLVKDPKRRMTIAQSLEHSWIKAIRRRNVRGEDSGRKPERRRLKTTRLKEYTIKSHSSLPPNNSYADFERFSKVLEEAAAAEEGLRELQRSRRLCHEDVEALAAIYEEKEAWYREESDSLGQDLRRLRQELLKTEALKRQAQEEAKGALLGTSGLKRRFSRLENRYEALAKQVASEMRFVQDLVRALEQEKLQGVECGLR

[2] = target: T1, Death-associated protein kinase 3; test: Inhibition of human recombinant DAPK3 at 1 uM
Target sequence in this assay (O43293 whole entry, looked up): as above

[3] = target: T1, Death-associated protein kinase 3; test: Inhibition of human recombinant DAPK3
Target sequence in this assay (O43293 whole entry): as the sequence (O43293 whole entry, looked up) above

SMILES	inhibition [1]	inhibition [2]	IC50 [3]
O=C1OC(c2ccccc2)=N/C1=C\c1ccccc1	4%	–	–
O=C1OC(c2ccc(Cl)c([N+](=O)[O-])c2)=N/C1=C\c1cccnc1	100%	100%	278 nM
COc1ccc(C2=N/C(=C\c3cccnc3)C(=O)O2)c(Br)c1	92%	100%	157 nM
O=C1OC(c2ccccc2)=N/C1=C\c1ccncc1	1%	0%	–
O=C1OC(c2cccc(Br)c2)=N/C1=C\c1ccncc1	0%	1%	–
COc1ccc(C2=N/C(=C\c3cccnc3)C(=O)O2)cc1OC	36%	14%	–
O=C1OC(c2ccc(Cl)c([N+](=O)[O-])c2)=N/C1=C\c1ccncc1	10%	0%	–
Cc1ccc(C2=N/C(=C\c3cccnc3)C(=O)O2)cc1[N+](=O)[O-]	90%	72%	534 nM
COc1ccc(C2=N/C(=C\c3cccnc3)C(=O)O2)cc1Br	32%	32%	–
O=C1OC(c2cccc(Cl)c2)=N/C1=C\c1cccnc1	97%	85%	360 nM
O=C1OC(c2ccc([N+](=O)[O-])cc2)=N/C1=C\c1cccnc1	94%	90%	291 nM
COc1cccc(C2=N/C(=C\c3cccnc3)C(=O)O2)c1	100%	99%	395 nM
O=C1OC(c2cccc(Br)c2)=N/C1=C\c1cccnc1	100%	100%	148 nM
O=C1OC(C23CC4CC(CC(C4)C2)C3)=N/C1=C\c1cccnc1	45%	–	–
O=C1OC(c2ccc(Cl)cc2)=C/C1=C\c1cccnc1	3%	–	–
O=C1N=C(N2CCCCC2)S/C1=C\c1cccnc1	29%	–	–
O=C1OC(c2ccc([N+](=O)[O-])cc2)=N/C1=C\c1ccncc1	2%	0%	–
O=C1OC(c2ccc(Cl)cc2Cl)=N/C1=C\c1cccnc1	78%	42%	–
O=C1OC(c2cc(I)ccc2Cl)=N/C1=C\c1ccncc1	97%	83%	227 nM
COc1cc(C2=N/C(=C\c3cccnc3)C(=O)O2)cc(OC)c1OC	33%	26%	–
O=C1OC(c2cccc([N+](=O)[O-])c2)=N/C1=C\c1ccncc1	0%	0%	–
